US12559553B2, “IL-31 modulators for treating FXR-induced pruritus” (Gilead Sciences, Inc., priority 2021, dated 2026)
“And” between values parts separate entries of the source, which are not always exact repeats. Identical values can stand only once. “Also recorded” adds a separate entry of the source.

Assays:
IL-31 [1] = experiment: Serum IL-31 pre-dose and post-dose, CILO phase 1 study in healthy volunteers; type: in vivo, human
Procedure: In the CILO phase 1 study, serum IL-31 levels were assessed in pre-dose and post-dose (from 1 to 8 hr) samples from the healthy volunteers (HVs) with placebo or CILO 30 mg, 100 mg or 300 mg. The HVs with CILO 100 mg or 300 mg had elevated serum IL-31 levels with peak concentration at 4-6 hr post-dose samples (data not shown). A similar intensive sampling study was also performed in the CILO NASH study. IL-31 levels in the serially collected samples were compared in NASH patients and HVs with CILO 100 mg. In HVs with CILO 100 mg, serum IL-31 achieved the peak concentration of 0.22 pg/mL and 2.6 fold increase from pre-dose (data not shown). NASH patients with the same dose had more increased serum IL-31 than HV.

FGF-19 [2] = experiment: FGF-19 target engagement in healthy volunteers; type: in vivo, human; conditions: CILO 100 mg, 4 hr post-dose
Text: (§1) Activation of FXR in the intestinal epithelial cells induces FGF-19 secretion. FGF-19 suppressed CYP7A1 expression, which is a key enzyme to […] 7α-hydroxycholesterol. 7α-hydroxycholesterol is metabolized into 7α-hydroxy-4-cholesten-3-one (C4). The increased FGF-19 and reduced C4 levels in circulation are target engagement assessments for FXR agonists.

IL-4 = experiment: Serum IL-4 and other inflammatory markers in the CILO NASH study; type: in vivo, human; conditions: NASH patients
Procedure: IL-31 is expressed and secreted by activated T helper 2 (Th2) cell. IL-4, a type II immune cytokine, was associated with activation of Th2 cells and serum IL-31 levels in patients with atopic dermatitis. Serum IL-4 levels were assessed in the CILO NASH and PSC studies.

[3] = tested on: 7α-hydroxy-4-cholesten-3-one (C4); experiment: C4 levels in circulation, CILO NASH study; type: in vivo, human
Text: as §1

IL-31 [4] = experiment: Serum IL-31 (SIMOA assay), Phase 2 study of cilofexor in non-cirrhotic NASH patients; type: in vivo, human; conditions: for Serum IL-31, median (IQR) / Increase of IL-31 in patients with grade 2 or 3 pruritus versus the others: NASH
Procedure: (§2) Serum IL-31 (SIMOA©assay; Myriad, Austin, TX) was measured in a Phase 2 study of cilofexor (CILO, a non-steroidal FXR agonist) in non-cirrhotic NASH (n=140) patients. Patients were randomized 2:2:1 to CILO 100 mg, 30 mg, or placebo daily. Associations between serum IL-31 and pruritus-related adverse events and patient-reported outcomes (Visual Analog Scale [VAS] and 5-D Itch) were determined.

FGF-19 [5] = experiment: FGF-19 target engagement in NASH patients; type: in vivo, human
Text: as §1

IL-31 [6] = experiment: Serum IL-31 (SIMOA assay), Phase 2 study of cilofexor in PSC patients; type: in vivo, human
Procedure: as §2, with “IL-31 (SIMOA® assay;” for “IL-31 (SIMOA©assay;”, “in two” for “in a”, “2 studies” for “2 study”, “in PSC (n=52) and PBC (n=71). In all studies, patients” for “in non-cirrhotic NASH (n=140) patients. Patients”

IL-31 [7] = experiment: Serum IL-31 (SIMOA assay), Phase 2 study of cilofexor in PBC patients; type: in vivo, human
Procedure: (§3) Serum IL-31 (SIMOA® assay; Myriad, Austin, TX) was measured in two Phase 2 studies of cilofexor (CILO, a non-steroidal FXR agonist) in PSC (n=52) and PBC (n=71). In all studies, patients were randomized 2:2:1 to CILO 100 mg, 30 mg, or placebo daily. Associations between serum IL-31 and pruritus-related adverse events and patient-reported outcomes (Visual Analog Scale [VAS] and 5-D Itch) were determined. In PBC, IL-31 correlated to VAS (ρ=0.42, p<0.001) and 5-D Itch (ρ=0.58, p<0.001) (Table 6).

[8] = Cholestasis (ALP and BA levels) in PSC and PBC patients; type: in vivo, human
IL-31 [9] = experiment: Serum IL-31 in serially collected samples (intensive sampling), CILO NASH study; type: in vivo, human; conditions: NASH patients, CILO 100 mg
Procedure: A similar intensive sampling study was also performed in the CILO NASH study. IL-31 levels in the serially collected samples were compared in NASH patients and HVs with CILO 100 mg. In HVs with CILO 100 mg, serum IL-31 achieved the peak concentration of 0.22 pg/mL and 2.6 fold increase from pre-dose (data not shown). NASH patients with the same dose had more increased serum IL-31 than HV. […] Activation of FXR in the intestinal epithelial cells induces FGF-19 secretion. FGF-19 suppressed CYP7A1 expression, which is a key enzyme to […] 7α-hydroxycholesterol. 7α-hydroxycholesterol is metabolized into 7α-hydroxy-4-cholesten-3-one (C4). The increased FGF-19 and reduced C4 levels in circulation are target engagement assessments for FXR agonists.

[10] = Pruritus adverse events, Phase 2 study of cilofexor in PSC patients; type: in vivo, human
Procedure: as §3, with “determined.” for “determined. In PBC, IL-31 correlated to VAS (ρ=0.42, p<0.001) and 5-D Itch (ρ=0.58, p<0.001) (Table 6).”

human IL-31 = experiment: IL-31 in chimeric PXB mice with human hepatocytes treated with OCA; type: in vivo; conditions: OCA 10 mg/kg QD for 18 days
[11] = serially collected blood samples, 100 mg CILO, 6 hr post-dose
[12] = PBC, serially collected blood samples, 100 mg CILO, 5 hr post-dose

SMILES: O=C(O)c1ccnc(N2CC(O)(c3ccc(OCc4c(-c5c(Cl)cccc5Cl)noc4C4CC4)cc3Cl)C2)c1 [CILO, cilofexor]
- Serum IL-31 peak concentration (IL-31 [1]; CILO 100 mg): 0.22 pg/mL
- Serum IL-31 levels post-dose (IL-31 [1]; CILO 100 mg or 300 mg): elevated
- Time of peak serum IL-31 concentration post-dose (IL-31 [1]; CILO 100 mg or 300 mg): 4 to 6 h
- Serum IL-31 increase from pre-dose (IL-31 [1]; CILO 100 mg, at peak): 2.6 fold
- FGF-19 peak concentration (FGF-19 [2]): 591.6 pg/mL
- Effect on other inflammatory markers (IL-4 and IL-18) (IL-4): without changing
- Effect on serum IL-4 (IL-4): did not elevate
- C4 levels compared to placebo ([3]; W24, CILO 30 mg): significantly declined
- C4 levels compared to placebo ([3]; W24, CILO 100 mg): significantly declined
- Effect on serum IL-31 (IL-31 [4]; NASH patients, week 1 to week 24, 30 mg and 100 mg): increased serum IL-31 in a dose-dependent manner
- Serum IL-31, median (IQR) (IL-31 [4]; CILO 30 mg, Baseline): 0.09 pg/mL
- Serum IL-31, median (IQR) (IL-31 [4]; CILO 30 mg, Week 1): 0.15 pg/mL
- Serum IL-31, median (IQR) (IL-31 [4]; CILO 30 mg, Week 4): 0.105 pg/mL
- Serum IL-31, median (IQR) (IL-31 [4]; CILO 30 mg, Week 8): 0.14 pg/mL
- Serum IL-31, median (IQR) (IL-31 [4]; CILO 30 mg, Week 12): 0.145 pg/mL
- Serum IL-31, median (IQR) (IL-31 [4]; CILO 30 mg, Week 24): 0.15 (0.062, 0.27) pg/mL and 0.15 pg/mL
- Serum IL-31, median (IQR) (IL-31 [4]; CILO 100 mg, Baseline): 0.083 pg/mL
- Serum IL-31, median (IQR) (IL-31 [4]; CILO 100 mg, Week 1): 0.21 pg/mL
- Serum IL-31, median (IQR) (IL-31 [4]; CILO 100 mg, Week 4): 0.24 pg/mL
- Serum IL-31, median (IQR) (IL-31 [4]; CILO 100 mg, Week 8): 0.26 pg/mL
- Serum IL-31, median (IQR) (IL-31 [4]; CILO 100 mg, Week 12): 0.26 pg/mL
- Serum IL-31, median (IQR) (IL-31 [4]; CILO 100 mg, Week 24): 0.26 (0.13, 0.82) pg/mL and 0.26 pg/mL
- Increase of IL-31 in patients with grade 2 or 3 pruritus versus the others (IL-31 [4]; W1): 5.1 fold
- Increase of IL-31 in patients with grade 2 or 3 pruritus versus the others (IL-31 [4]; W4): 2.9 fold
- Increase of IL-31 in patients with grade 2 or 3 pruritus versus the others (IL-31 [4]; W8): 3.8 fold
- Increase of IL-31 in patients with grade 2 or 3 pruritus versus the others (IL-31 [4]; W12): 4.5 fold
- Increase of IL-31 in patients with grade 2 or 3 pruritus versus the others (IL-31 [4]; W24): 7 fold
- FGF-19 peak concentration (FGF-19 [5]; NASH patients, CILO 100 mg, 4 hr post-dose): 829.7 pg/mL
- FGF-19 increase from pre-dose (FGF-19 [5]; [11]): 45.9 fold
- FGF-19 peak concentration (FGF-19 [5]; [11]): around 1826 pg/mL
- FGF-19 median at pre-dose (FGF-19 [5]; serially collected blood samples, 100 mg CILO, pre-dose): 39.8 pg/mL
- Dose-dependent effect on serum IL-31 (IL-31 [6]): not observed
- Effect on serum IL-31 levels (IL-31 [6]; 12-week treatment): did not alter; also recorded: no effect
- Dose-dependent effect on serum IL-31 (IL-31 [7]; PBC patients): not observed
- Effect on serum IL-31 levels (IL-31 [7]; PBC patients, fasting samples at Weeks 1, 4 and 12, compared to placebo): did NOT change; also recorded: no effect; also recorded: did not alter
- IL-31 increase from pre-dose (IL-31 [7]; [12]): 2.5 fold
- IL-31 level post-dose (IL-31 [7]; [12]): 7.4 pg/mL
- IL-31 median level at pre-dose (IL-31 [7]; PBC, serially collected blood samples, 100 mg CILO, pre-dose): 3 pg/mL
- Effect on cholestasis (ALP and BA levels) [8]: improved cholestasis
- Serum IL-31 peak concentration (IL-31 [9]; 4-6 hr post-dose): 13 pg/mL and 12 to 13 pg/mL
- Serum IL-31 increase from pre-dose (IL-31 [9]; at peak): 23.6 fold and 21.8-23.6 fold
- Effect on pruritus [10]: did not exacerbate pruritus
- Any Grade pruritus, patients ([10]; CILO 30 mg): 5
- Grade 1 pruritus, patients ([10]; CILO 30 mg): 2
- Grade 2 pruritus, patients ([10]; CILO 30 mg): 1
- Grade 3 pruritus, patients ([10]; CILO 30 mg): 2
- Patients who reported grade 2 or 3 pruritus ([10]; CILO 30 mg): 3 subjects
- Any Grade pruritus, patients ([10]; CILO 100 mg): 8
- Grade 1 pruritus, patients ([10]; CILO 100 mg): 5
- Grade 2 pruritus, patients ([10]; CILO 100 mg): 1
- Grade 3 pruritus, patients ([10]; CILO 100 mg): 2
- Patients who reported grade 2 or 3 pruritus ([10]; CILO 100 mg): 3 subjects

SMILES: CC[C@H]1[C@@H](O)[C@@H]2[C@H](CC[C@]3(C)[C@@H]([C@H](C)CCC(=O)O)CC[C@@H]23)[C@@]2(C)CC[C@@H](O)C[C@@H]12 [OCA, obeticholic acid]
- Hepatic IL-31 mRNA expression vs vehicle (human IL-31): 7.8 fold
